Like-named read-outs stand apart in the source and are kept apart here.
How the values were obtained:
[1] = molecular target: T1, brain CCK receptor (Mus musculus, UniProt P56481); assay: CCK receptor binding, mouse brain membranes (125I-CCK-8 sulfate)
T1 construct: from tissue; host or cells: forebrain membranes of male CF-1 mice
T1 sequence (P56481 1-453): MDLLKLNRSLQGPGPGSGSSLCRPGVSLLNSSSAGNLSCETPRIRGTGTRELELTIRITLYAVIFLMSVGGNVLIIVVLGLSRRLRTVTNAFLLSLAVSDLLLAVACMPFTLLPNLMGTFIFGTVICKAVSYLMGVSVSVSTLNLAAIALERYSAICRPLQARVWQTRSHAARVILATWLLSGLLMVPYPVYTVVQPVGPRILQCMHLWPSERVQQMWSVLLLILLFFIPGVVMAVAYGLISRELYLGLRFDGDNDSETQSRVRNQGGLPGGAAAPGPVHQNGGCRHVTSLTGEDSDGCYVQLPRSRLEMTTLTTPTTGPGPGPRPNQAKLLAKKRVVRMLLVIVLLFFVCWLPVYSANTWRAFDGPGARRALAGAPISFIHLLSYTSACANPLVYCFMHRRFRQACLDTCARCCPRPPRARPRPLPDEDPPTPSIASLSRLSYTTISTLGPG

[2] = molecular target: T2, peripheral type CCK receptors in rat pancreas (Rattus norvegicus, UniProt P30551); assay: Binding to peripheral type CCK receptors in rat pancreas (3H-L-364,718); conditions: for inhibition at 10 µM: read-out: Pancreas Percent Inhibition; for IC50: rat pancreas
T2 construct: Pancreas was obtained from male Sprague-Dawley rats; from tissue; host or cells: pancreas membranes of male Sprague-Dawley rats
T2 sequence (P30551 1-444): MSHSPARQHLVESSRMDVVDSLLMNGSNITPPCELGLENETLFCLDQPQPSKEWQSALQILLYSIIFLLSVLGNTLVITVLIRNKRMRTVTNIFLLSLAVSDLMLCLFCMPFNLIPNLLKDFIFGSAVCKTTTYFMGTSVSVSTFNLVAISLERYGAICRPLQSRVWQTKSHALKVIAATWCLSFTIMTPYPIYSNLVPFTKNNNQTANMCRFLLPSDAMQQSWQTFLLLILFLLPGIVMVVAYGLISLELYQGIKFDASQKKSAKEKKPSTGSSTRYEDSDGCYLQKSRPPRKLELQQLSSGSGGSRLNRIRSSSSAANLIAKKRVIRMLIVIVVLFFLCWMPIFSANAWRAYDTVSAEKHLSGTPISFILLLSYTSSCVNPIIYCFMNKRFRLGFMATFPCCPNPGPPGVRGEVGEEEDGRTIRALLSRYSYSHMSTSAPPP
Method in brief: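 Washed pancreatic membranes from male Sprague-Dawley rats (150-200 g) incubated 1 h at room temperature with 0.4-0.6 nM ³H-L-364,718 in 50 mM Tris pH 7.4, 5 mM MgCl2, bacitracin, 5 mM DTT. Bound radioactivity counted after filtration; nonspecific binding defined with 100 nM L-364,718; IC50 determined.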

[3] = molecular target: T3, gastrin receptor (Cavia porcellus, UniProt H0VZC5); assay: Gastrin binding to guinea pig stomach mucosal membranes (125I-gastrin I)
T3 construct: Guinea pig stomach fundus was obtained from male Hartley guinea pigs; from tissue; host or cells: stomach fundus mucosal membranes of male Hartley guinea pigs
T3 sequence (H0VZC5 1-426): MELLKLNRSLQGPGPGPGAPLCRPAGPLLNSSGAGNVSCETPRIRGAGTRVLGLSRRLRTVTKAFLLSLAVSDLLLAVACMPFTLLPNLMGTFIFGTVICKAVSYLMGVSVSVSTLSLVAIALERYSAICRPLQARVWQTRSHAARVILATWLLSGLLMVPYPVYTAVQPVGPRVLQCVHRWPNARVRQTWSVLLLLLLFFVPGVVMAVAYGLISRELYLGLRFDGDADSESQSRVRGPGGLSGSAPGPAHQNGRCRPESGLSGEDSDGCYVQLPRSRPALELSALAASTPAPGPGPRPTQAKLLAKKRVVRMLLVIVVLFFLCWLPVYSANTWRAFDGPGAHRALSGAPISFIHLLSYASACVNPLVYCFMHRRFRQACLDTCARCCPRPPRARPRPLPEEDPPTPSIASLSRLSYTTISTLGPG
Method: The method used for gastrin binding to guinea pig stomach mucosal membranes was similar to that described by Takeuchi, Speir and Johnson (Am. J. Physiol. 237(3): E284-E294, 1979). Guinea pig stomach fundus was obtained from male Hartley guinea pigs, 300-350 g, and the mucosa was scraped off with a glass slide. The mucosa was homogenized in 50 mM Tris buffer, pH 7.4, containing 1 mM phenylmethanesulfonyl fluoride using a Dounce glass homogenizer, and the suspension was centrifuged at 40,000 g for 10 min. The resulting pellet was resuspended and centrifuged once more, the final pellet was then suspended in 100 ml assay buffer per 1 guinea pig stomach to give a protein concentration of 200-300 μg/200 μl. The assay buffer consisted of 50 mM Tris buffer, pH 7.4, 5 mM MgCl2, 0.14 mg/ml bacitracin, and 1 μg/ml each of leupeptin, chymostatin, aprotinin and pepstatin. Reagent volumes for the assay were the same as those used for CCK binding to brain membranes. The radioactive ligand was 20 pM ^125 I-gastrin I, from DuPont NEN (NEX-176). The samples were incubated 3 hours at room temperature and filtered and counted as described for CCK binding to brain membranes. Compound samples were prepared and IC-50 values were determined as described for the CCK-brain receptor binding. Non-specific binding was determined using 100 nM gastrin I (human synthetic from Sigma Chemical Co.).

[4] = mouse brain membranes, read-out: Brain IC50
[5] = guinea pig stomach mucosal membranes, read-out: Gastrin IC50
[6] = Brain IC50, mouse brain membranes

SMILES | IC50 [1, 4] [µM] | inhibition at 10 µM ([2]; at 10 μM) [%] | IC50 [3, 5] [µM] | Pancreas Percent Inhibition ([2]; at 10 μM) [%] | IC50 [2] [µM] | IC50 [1, 6] [µM] | IC50 [3] [µM]
CC(C)(C)c1ccc(NC(=O)N2NC(=O)[C@@H](c3ccccc3)[C@@H]2c2ccccc2)cc1 (relative stereo) [Example 30] | 0.031 | 49 | 0.35 |  |  |  | 
O=C1NN(C(=O)Nc2ccc(C(F)(F)F)cc2)C(c2ccccc2Cl)C1c1ccccc1 (centres unmarked) [Example 110] | 0.007 |  | 0.13 | 47 |  |  | 
CC(C)Oc1cccc(C2C(=O)NN(C(=O)Nc3ccc(Br)cc3)C2c2ccccc2)c1 (centres unmarked) [Example 124] | 0.15 | 36 | 0.73 |  |  |  | 
O=C1NN(C(=O)Nc2ccc(Br)cc2)C(c2ccccc2)C1c1cccc([N+](=O)[O-])c1 (centres unmarked) [Example 125] | 0.1 | 42 | 0.59 |  |  |  | 
O=C1NN(C(=O)Nc2ccc(Br)cc2)[C@@H](c2ccccc2Cl)[C@@H]1c1ccccc1Cl (relative stereo) [Example 133] | 0.006 |  | 0.025 |  | 7.9 |  | 
O=C1NN(C(=O)Nc2ccc(Cl)c(Cl)c2)[C@H](c2ccccc2)[C@H]1c1ccccc1 (relative stereo) [Example 46] | 0.042 |  | 0.21 |  | 1.2 |  | 
CC(C)c1ccc(NC(=O)N2NC(=O)C(c3ccccc3)C2c2ccccc2Cl)cc1 (centres unmarked) [Example 121] | 0.014 | 26 | 0.12 |  |  |  | 
O=C1NN(C(=O)Nc2ccc(Br)cc2)[C@@H](c2ccccc2)[C@@H]1c1ccccc1 (relative stereo) [Example 20] | 0.031 |  | 0.49 |  | 11.6 |  | 
CC(C)c1ccc(NC(=O)N2NC(=O)C(c3ccccc3Cl)C2c2ccccc2)cc1 (centres unmarked) [Example 132] | 0.008 | 48 | 0.07 |  |  |  | 
O=C1NN(C(=O)Nc2cnc3ccccc3c2)[C@@H](c2ccccc2)[C@@H]1c1ccccc1 (relative stereo) [Example 92] | 0.064 | 88 | 0.16 |  |  |  | 
COc1ccccc1C1C(c2ccccc2)C(=O)NN1C(=O)Nc1ccc(Br)cc1 (centres unmarked) [Example 115] | 0.15 | 53 | 0.32 |  |  |  | 
N#Cc1cccc(C2C(c3ccccc3)C(=O)NN2C(=O)Nc2ccc(C(F)(F)F)cc2)c1 (centres unmarked) [Example 111] |  | 35 |  |  |  | 0.02 | 0.61
NC(=O)c1cccc(C2C(c3ccccc3)C(=O)NN2C(=O)Nc2ccc(Br)cc2)c1 (centres unmarked) [Example 118] | 0.36 | 41 | 5.2 |  |  |  | 
COc1cccc(C2C(=O)NN(C(=O)Nc3ccc(Br)cc3)C2c2ccccc2)c1 (centres unmarked) [Example 123] | 0.068 | 23 | 0.69 |  |  |  | 
O=C1NN(C(=O)Nc2ccc(Cl)c(C(F)(F)F)c2)C(c2ccccc2)C1c1ccccc1Cl (centres unmarked) [Example 131] | 0.012 | 61 | 0.062 |  |  |  | 
O=C1NN(C(=O)Nc2ccc(C(F)(F)F)cc2)C(c2ccccc2)C1c1ccccc1Cl (centres unmarked) [Example 130] |  | 42 |  |  |  | 0.012 | 0.1
O=C1NN(C(=O)Nc2ccc(Br)cc2)[C@@H](c2ccccc2Cl)[C@H]1c1ccccc1Cl (relative stereo) [Example 133A] | 0.36 | 55 | 1.5 |  |  |  | 

SMILES | IC50 [1, 4] [µM] | inhibition at 10 µM ([2]; at 10 μM) [%] | IC50 [3, 5] [µM] | Pancreas Percent Inhibition ([2]; at 10 μM) [%] | IC50 [2] [µM] | IC50 [1, 6] [µM] | IC50 [3] [µM]
O=C1NN(C(=O)Nc2ccc(Br)cc2)C(c2ccccc2)C1c1ccc(Cl)cc1 (centres unmarked) [Example 129] | 0.16 | 69 | 0.86 |  |  |  | 
CSc1ccc(NC(=O)N2NC(=O)[C@@H](c3ccccc3)[C@@H]2c2ccccc2)cc1 (relative stereo) [Example 38] | 0.056 | 53 | 0.24 |  |  |  | 
O=C1NN(C(=O)Nc2ccc(Cl)c(C(F)(F)F)c2)C(c2ccccc2Cl)C1c1ccccc1 (centres unmarked) [Example 120] | 0.016 | 87 | 0.12 |  |  |  | 
O=C1NN(C(=O)Nc2ccc(Cl)c(C(F)(F)F)c2)[C@@H](c2ccccc2)[C@@H]1c1ccccc1 (relative stereo) [Example 1, 1-[(4-Chloro-3-trifluoromethylphenyl)aminocarbonyl]-4,5-diphenyl-3-pyrazolidinone] | 0.022 |  | 0.15 |  | 0.19 |  | 
O=C1NN(C(=O)Nc2ccc3ncccc3c2)[C@@H](c2ccccc2)[C@@H]1c1ccccc1 (relative stereo) [Example 93] | 0.29 | 75 | 0.66 |  |  |  | 
O=C1NN(C(=O)Nc2ccc(Br)cc2)C(c2ccccc2Cl)C1c1ccccc1 (centres unmarked) [Example 114] | 0.02 | 38 | 0.36 |  |  |  | 
CC(C)c1ccc(NC(=O)N2NC(=O)[C@@H](c3ccccc3)[C@@H]2c2ccccc2)cc1 (relative stereo) [Example 29] | 0.025 | 47 | 0.26 |  |  |  | 
O=C1NN(C(=O)Nc2ccc3c(c2)CCC3)[C@H](c2ccccc2)[C@H]1c1ccccc1 (relative stereo) [Example 49] | 0.043 | 40 | 0.25 |  |  |  | 
O=C1NN(C(=O)Nc2ccc(Br)cc2)C(c2ccccc2)C1c1ccccc1Cl (centres unmarked) [Example 122] | 0.015 |  | 0.22 |  | 8.6 |  | 
O=C1NN(C(=O)Nc2ccc(Br)cc2)C(c2cccnc2)C1c1ccccc1 (centres unmarked) [Example 135] | 0.14 | 18 | 1.7 |  |  |  | 
O=C1NN(C(=O)Nc2ccc(Br)cc2)C(c2ccccc2)C1c1cccc(Br)c1 (centres unmarked) [Example 127] | 0.032 | 73 | 0.21 |  |  |  | 
O=C1NN(C(=O)NCCc2ccccc2Cl)[C@@H](c2ccccc2)[C@@H]1c1ccccc1 (relative stereo) [Example 106] | 0.19 | 78 | 0.87 |  |  |  | 
O=C1NN(C(=O)Nc2ccc3c(c2)CCCC3)[C@H](c2ccccc2)[C@H]1c1ccccc1 (relative stereo) [Example 50] | 0.013 | 87 | 0.081 |  |  |  | 
COc1cccc(C2C(c3ccccc3)C(=O)NN2C(=O)Nc2ccc(C(F)(F)F)cc2)c1 (centres unmarked) [Example 112] | 0.072 | 42 | 1.4 |  |  |  | 
O=C1NN(C(=O)Nc2ccc(Br)cc2)C(c2ccccc2)C1c1cccc(Cl)c1 (centres unmarked) [Example 126] | 0.011 | 59 | 0.21 |  |  |  | 
O=C(O)COC1=NN(C(=O)Nc2ccc(Br)cc2)[C@@H](c2ccccc2)[C@@H]1c1ccccc1 (relative stereo) [Example 12 (O--), 1-[(4-bromophenyl)aminocarbonyl]-3-carboxymethoxy-4,5-diphenyl-2-pyrazoline] | 0.34 | 64 |  |  |  |  | 

Reference: US5399565A, “Pyrazolidinone CCK and gastrin antagonists and pharmaceutical formulations therof” (priority 1993, dated 1995)
